{"source": "patent US20120283293A1", "about": "“Methods of neuroprotection involving Prostaglandin E2 EP4 (PGE2 EP4) receptor activation” (The Board of Trustees of the Leland Stanford Junior …, priority 2011, published 2012)", "key": {"BV-2 cells": {"test_system": "BV-2 cells", "test": "Griess assay of nitrite production (NOS activity) in LPS-treated BV-2 cells", "type": "cell-based, murine", "procedure": "Nitric oxide synthase (NOS) activity was measured using the Griess assay to measure nitrite production (Promega, Madison, Wis.). BV-2 cells were plated at 5×10^4 cells/well in 24-well plates, allowed to reach 90% confluence, and incubated +/−LPS (10 ng/ml)+/−AE1-329 (1 nM-1 μM) or vehicle for 24 h. […] cell culture medium and nitrite standards ([…]) were transferred to a 96-well plate and mixed with 50 μl sulphanilamide solution and 50 μl NED solution. After a 10 min incubation at room temperature, absorbance was read at 530 nm on a SpectraMax M5 plate reader (Molecular Devices, Sunnyvale, Calif.). Experiments were repeated in triplicate.\nInflammatory stimuli such as LPS can activate microglia through the CD14/TLR4 receptor complex and induce the expression of pro-inflammatory enzymes and cytokines (Fassbender et al., 2004; Walter et al., 2007). LPS-induced inflammatory responses were tested in the absence and presence of pharmacologic activation of EP4 receptor with the selective EP4 agonist AE1-329. BV-2 cells were treated with LPS (10 ng/ml) in the presence or absence of the selective EP4 agonist AE1-329 (1 μM) for 6 h, and pro-inflammatory gene expression was measured using qPCR (see FIG. 2). […] In FIG. 2D, EP4 regulation of iNOS activity was investigated."}, "[1]": {"test_system": "microglia isolated from adult mouse brain", "test": "inflammatory gene expression in microglia isolated from adult brain of LPS-treated mice", "type": "in vivo", "details": "2-3 mo C57B6 male mice, LPS 5 mg/kg i.p., AE1-329 0.3 mg/kg subcutaneously, microglia harvested at 6 hours", "procedure": "qPCR was carried out as previously described (Liang et al., 2008). Briefly, total RNA was isolated using Trizol reagent (Invitrogen, Carlsbad, Calif.), treated with DNAse (Invitrogen), and the reaction was terminated by heating at 65° C. for 10 minutes. First strand cDNA synthesis was performed with 1.5 μg of total RNA, 4 units of Omniscript enzyme (Qiagen, Valencia, Calif.) and 0.25 μg of random primer in a reaction volume of 20 μl at 37° C. for 1 hour. Reverse transcribed cDNA was diluted 1:20 in RNAse free ddH2O for subsequent RT-PCR. The mRNA level for each target gene was quantified by SYBR Green-based qPCR using the QuantiTect SYBR Green PCR kit (Qiagen). Melting curve analysis confirmed the specificity of each reaction. […] Quantification was performed using the standard curve method. […]\nAdult microglial cell isolation was carried according to the methods of Cardona et al., 2006, and cells were processed for RNA isolation or flow cytometry. […] Purity of the microglial preparation was determined in separate experiments by labeling ˜10^5 cells/ml with phycoerythrin (PE)-conjugated hamster anti-mouse CD11b or IgG isotype control (1:100; eBioscience, San Diego, Calif.) for 30 minutes on ice. […] Flow cytometry was performed on a LSR II (BD Biosciences), and data analyzed with FlowJo 7.2.2 software. […]"}}}
{"compound": "COCc1ccccc1CC[C@H](O)/C=C/[C@H]1[C@H](O)CC(=O)[C@@H]1SCCCSCC(=O)O", "note": "[AE1-329]", "values": [{"measurement": "LPS-induced NO production, dose response", "setting": "BV-2 cells; BV-2 cells, 1, 10, 100 and 1000 nM AE1-329, 24 hours", "value": "dose-dependently reduced NO production"}, {"measurement": "nitrite concentration", "setting": "BV-2 cells; BV-2 cells, LPS 10 ng/ml + 10 nM AE1-329, 24 hours (LPS alone 21.76 μM)", "value": 6.57, "unit": "µM"}, {"measurement": "decrease of LPS-induced NO production (nitrite)", "setting": "BV-2 cells; BV-2 cells, LPS 10 ng/ml, 10 nM AE1-329, 24 hours", "value": 68.9, "unit": "%"}, {"measurement": "LPS-induced microglial COX-2, iNOS, IL-6, TNF-α and gp91phox expression", "setting": "[1]", "value": "significantly reduced"}]}
